Entries after “also recorded” stand apart in the source; their conditions may differ.
System: HCT116-luc cells
Experiment: Cecum-to-liver metastasis model, GREM1-CM-pre-treated HCT116-luc in NOG mice
Type: in vivo, human cells in NOG mice
Settings: cecum wall, SB505124 10 mg/kg i.p. every other day, IVIS, n = 5 mice per group
From the text: To determine the role of the ACVR1C–SMAD2/3 axis in GREM1-mediated EMT in vivo, we harnessed HCT116 cells carrying a luciferase reporter (HCT116-luc), which stably express either shACVR1C or a scramble shRNA. These cells were pretreated with GREM1-CM prior to their subcutaneous transplantation into nude mice. […] These findings were further corroborated by IF staining of EMT markers, including E-CAD and SNAIL (Figs. 5E–G). As a complementary pharmacological approach, we inhibited ACVR1C-mediated SMAD2/3 activation using SB505124. […] Importantly, to investigate the impact of the ACVR1C–SMAD2/3 axis on metastasis, we injected GREM1-CM-pre-treated HCT116-luc cells, stably expressing either shACVR1C or scramble shRNA, into the tail vein of nude mice. […]
Figure S8. […] E-G, Representative IF images (E) and quantification (F, G) of E-CAD (green), SNAIL (red), and DAPI (blue) staining in tumors from the indicated groups. […] H, I, Representative IVIS images (H) and quantification (I) of NOG mice that were injected with HCT116-luc cells in the cecum wall and treated with either SB505124 or vehicle via abdominal injection. Liver metastases were imaged and quantified using the IVIS Lumina Imaging System (n = 5 mice per group). […] P values were calculated using one-way ANOVA with Bonferroni multiple-comparison test (B–D, F, and G) or two-tailed Student’s t-test (I).

Cc1cccc(-c2[nH]c(C(C)(C)C)nc2-c2ccc3c(c2)OCO3)n1 [SB505124]
liver metastasis: significant reduction in liver metastasis; also recorded: markedly attenuated the metastatic phenotype induced by GREM1-CM

Reference: publication PMC13371181, “A paracrine-to-autocrine shunt of GREM1 fuels colorectal cancer metastasis via ACVR1C” (Molecular Cancer, 2026)
